Source: patent US20070264287A1, “Methods for Increasing the Immune Response in an Animal” (priority 2004, published 2007)

Tested on: NK cell activity
Test: NK cell activity in old dogs fed a diet fortified with lipoic acid
Type: in vivo
Settings: old beagles (Group 3, average age 11.3 years), dry food fortified with 150 ppm lipoic acid on a dry matter basis, six weeks, versus baseline and young and old controls; FIG. 1
Source text: The dogs are beagles and Group 1 consists of 10 beagles with the average age of 5.1 years old, Group 2 consists of 10 beagles with an average age of 11.8 years old, and Group 3 consists of 10 beagles with an average age of 11.3 years old. The dogs from all three groups are fed the controlled food for a two week period prior to intervention. […] During the two week period on the control, samples are taken from all dogs and chemical and biological analysis is completed on the samples to establish base line data. Then three groups of dogs eat their respective diets for a six week period of time and after this time period, samples are taken from all of the dogs in the study and chemical and biological analysis is completed on the samples. Baseline data is compared to the data taken at the end of the six week study.

With `O=C(O)CCCC[C@@H]1CCSS1` (racemic) [lipoic acid] the NK cell activity was “increased NK cell activity”.
